Test results: patent publication US9828357B2, “Cyclic compounds” (Takeda Pharmaceutical Company Limited, priority 2015, dated 2017)

Tests used:
TLR4 = target: T1, TLR4 (Mus musculus, UniProt Q9QUK6); assay: Inhibitory effect with respect to NO production (LPS/interferon γ-stimulated RAW264.7); format: cell-based, murine; settings: RAW264.7 cells, LPS 1.25 ng/mL and mouse interferon γ 0.2 ng/mL, nitrite ion in culture supernatant
T1 construct: endogenous in cells; host or cells: RAW264.7 (murine macrophage cell line)
T1 sequence (Q9QUK6 26-835): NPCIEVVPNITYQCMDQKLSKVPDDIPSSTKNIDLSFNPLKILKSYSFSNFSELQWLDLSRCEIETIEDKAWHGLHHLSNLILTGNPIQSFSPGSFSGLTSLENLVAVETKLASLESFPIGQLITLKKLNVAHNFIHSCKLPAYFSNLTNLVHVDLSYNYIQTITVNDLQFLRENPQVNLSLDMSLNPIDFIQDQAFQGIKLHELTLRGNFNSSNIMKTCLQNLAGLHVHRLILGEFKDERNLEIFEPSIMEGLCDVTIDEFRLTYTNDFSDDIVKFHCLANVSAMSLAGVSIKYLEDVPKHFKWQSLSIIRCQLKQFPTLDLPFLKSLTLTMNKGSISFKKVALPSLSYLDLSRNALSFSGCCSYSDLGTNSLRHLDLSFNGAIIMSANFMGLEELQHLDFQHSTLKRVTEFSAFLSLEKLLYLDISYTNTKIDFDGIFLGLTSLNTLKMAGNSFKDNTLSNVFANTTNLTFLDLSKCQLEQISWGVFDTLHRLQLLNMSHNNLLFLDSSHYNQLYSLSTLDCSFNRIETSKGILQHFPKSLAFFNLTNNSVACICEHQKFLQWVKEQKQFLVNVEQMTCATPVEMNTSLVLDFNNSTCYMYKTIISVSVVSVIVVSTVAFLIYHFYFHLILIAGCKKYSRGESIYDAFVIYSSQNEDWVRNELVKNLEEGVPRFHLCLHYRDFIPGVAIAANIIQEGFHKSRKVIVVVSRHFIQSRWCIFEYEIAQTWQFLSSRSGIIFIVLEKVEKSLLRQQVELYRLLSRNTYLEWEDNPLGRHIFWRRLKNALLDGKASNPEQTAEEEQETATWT
T1 sequence (Q9JHF9 19-160 partner): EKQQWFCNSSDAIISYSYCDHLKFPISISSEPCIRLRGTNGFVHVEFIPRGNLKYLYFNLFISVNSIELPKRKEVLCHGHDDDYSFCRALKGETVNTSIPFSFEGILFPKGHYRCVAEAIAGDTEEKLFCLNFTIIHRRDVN
Method: The inhibitory effect on TLR4 was determined using the inhibition rate due to the test compound with respect to NO production as a result of addition of lipopolysaccharide (LPS) using murine macrophage cell line RAW264.7. The cells were adjusted to 2×10^6 cells/mL using RPM1-1640 culture medium (phenol red free) supplemented with 10% inactivated bovine fetal serum, and were plated on 384 well plate so as to contain 6×10^4 cells/30 μL per well. Thereafter the cells were cultured at 37° C. overnight under 5% CO2/95% air. The test compound dissolved in DMSO was diluted 200 times using RPM1-1640 culture medium and adjusted so as to form a compound concentration of 500 nM. The prepared test compound 10 μL (final concentration 100 nM) was added to the cells, and LPS (Sigma) and mouse interferon γ (Wako Pure Chemicals) were added in amounts of 10 μL so as to form final concentrations of 1.25 ng/mL and 0.2 ng/mL respectively. The cells were further cultured overnight, and then the nitrite ion (stable NO metabolite) concentration in the culture supernatant was measured as an index of NO production. The nitrite ion concentration was assayed by adding 10 μL of 20 μg/mL 2,3-diamino naphthalene (DAN) dissolved in 0.2N HCl to 20 μL culture supernatant, incubating at room temperature for ten minutes, and then adding 10 μL of 0.5N NaOH, and measuring the fluorescent value at 460 nm (excitation wavelength 355 nm) using an EnVision plate reader (Perkin Elmer). The NO production inhibition rate (%) was calculated using the value without the addition of stimulating agent as control of 100% inhibition, and the value without the addition of the compound as control of 0% inhibition.

[1] = system: oxaliplatin induced-neuropathic pain model mouse; assay: Analgesic action on oxaliplatin induced-neuropathic pain model mouse; format: in vivo; settings: C57BL/6N mice, 1 week after oxaliplatin 0.3 mg/kg i.p., mean ± standard error
Method: Oxaliplatin was diluted with saline by the predetermined concentration, and administered intraperitoneally to mice (C57BL/6N, male, 8 weeks old) at 0.3 mg/kg. The test compound was dissolved in 10% captisol or 10% captisol containing 0.1% N-methyl-2-pyrrolidone. The compound was administered intravenously (0.1-10 mg/kg body weight) to the mice immediately before intraperitoneal administration of various anticancer drugs. The pain threshold was measured 1 week after oxaliplatin administration. The pain threshold was evaluated as a weighted value (gram) showing pseudo-escape reaction, when the footpad of the right hind limb was pressed using balance type pressurizing device (Ugo Basile). The values in the table show the mean±standard errors of the weighted values.

[2] = system: liver injury by Galactosamine/LPS stimulation; assay: Action on liver injury by Galactosamine/LPS stimulation (blood plasma ALT); format: in vivo; settings: BALB/c mice; for ALT amount in the blood plasma: 8 hr, mean ± standard error
Method: The action on liver injury by Galactosamine/LPS stimulation was evaluated by elevation of blood alanine transaminase (ALT) amount as an index. Galactosamine (700 mg/kg) and LPS (5 μg/kg) were administered intraperitoneally to BALB/c mice (female, 7 weeks old, Japan Charles River). After 8 hr, the blood was collected in the presence of heparin. The obtained blood was centrifuged (4° C., 10000×rpm, 10 min), and the blood plasma was collected, and the ALT amount in the blood plasma was measured by 7180 type Hitachi automated analytical apparatus (Hitachi High-Technologies Corporation). Compound 6 was dissolved in 10% captisol solution (0.3, 1, 3 mg/kg), and the solution was administered intravenously to the mice in the tail vein 1 hr before Galactosamine/LPS administration.

blood TNFα = assay: Effect on blood TNF-α concentration elevation by LPS stimulation; format: in vivo; settings: female BALB/c mice; 3 mg/kg intravenously 1 h before LPS 5 mg/kg i.p.; serum 1 h after LPS; vs control group
Method: Various kinds of cytokines are produced in vivo accompanying inflammatory response and abnormal immunity or the like. Therefore, the action of test compound with respect to blood TNFα concentration rise was investigated using laboratory animals.
Female BALB/c mice (6 weeks old) were purchased, and, after preliminary rearing for about 1 week, the mice were divided into groups of four animals. The test compound was dissolved in 10% captisol aqueous solution and was intravenously administered to the test group at a dose of 3 mg/kg. Solvent was administered to control group in the same way. LPS (5 mg/kg) was administered intraperitoneally to the test group and the control group one hour after the administration of the test compound or solvent, and blood was sampled one hour later. The serum was separated from the obtained blood, and the TNFα[…]concentration in the serum was measured using an assay kit made by R&D Systems Inc. The inhibition rates of the test group with respect to the control group are shown in Table 3.

In the case of `CCOC(=O)C1=CC2(CC[C@H]1S(=O)(=O)[C@H]1CCc3cccc(Cl)c31)O[C@H](CO)[C@@H](CO)O2` [Compound 6, Ethyl (2R,3R,8R)-8-(((1S)-7-chloro-2,3-dihydro-1H-inden-1-yl)sulfonyl)-2,3-bis(hydroxymethyl)-1,4-dioxaspiro[4.5]dec-6-ene-7-carboxylate], the “NO production inhibitory effect at 100 nM (% inhibition)” value (TLR4) is reported as 103 % inhibition, the “Pain threshold (weighted value showing pseudo-escape reaction)” value (“Pain threshold” below) ([1]; 1 mg/kg i.v.) is reported as 190.0 ± 46.1 gram and the “Pain threshold” value ([1]; 3 mg/kg i.v.) is reported as 153.3 ± 46.1 gram. For the same compound, the “Pain threshold” value ([1]; 10 mg/kg i.v.) was 310.0 ± 45.6 gram, the “ALT amount in the blood plasma” value ([2]; 0.3 mg/kg i.v. 1 hr before Galactosamine/LPS) was 570 ± 94 IU/L and the “ALT amount in the blood plasma” value ([2]; 1 mg/kg i.v. 1 hr before Galactosamine/LPS) was 361 ± 60 IU/L. For the same compound, the “ALT amount in the blood plasma” value ([2]; 3 mg/kg i.v. 1 hr before Galactosamine/LPS) was 104 ± 10 IU/L, the “Effect on the increase in the ALT amount in the blood plasma due to Galactosamine/LPS stimulation (in words)” value ([2]; 0.3, 1, 3 mg/kg i.v.) was “dose-dependently and significantly inhibited the increase in the ALT amount” and the “Blood TNFα inhibition rate (% inhibition)” value (blood TNFα) was 93.1 % inhibition.
